Assay results reported in patent US9809574B2, “Isoindoline or isoquinoline compounds, a process for their preparation and pharmaceutical compositions containing them” (LES LABORATOIRES SERVIER, priority 2013, dated 2017).
Counter-ions that a name gives are not always drawn. Values belong to the molecule of their own block, whether it stands above or below them.

Key:
[1] = molecular target: Bcl-2 protein (histag-Bcl-2, UniProtKB P10415) (Homo sapiens (Human), UniProt P10415); assay: Inhibition of Bcl-2 by the fluorescence polarisation technique; format: binding; conditions: fluorescence polarisation test; incubation for 2 hours; read-out: IC50 (nM) Bcl-2 FP
Bcl-2 protein, sequence (P10415 whole entry): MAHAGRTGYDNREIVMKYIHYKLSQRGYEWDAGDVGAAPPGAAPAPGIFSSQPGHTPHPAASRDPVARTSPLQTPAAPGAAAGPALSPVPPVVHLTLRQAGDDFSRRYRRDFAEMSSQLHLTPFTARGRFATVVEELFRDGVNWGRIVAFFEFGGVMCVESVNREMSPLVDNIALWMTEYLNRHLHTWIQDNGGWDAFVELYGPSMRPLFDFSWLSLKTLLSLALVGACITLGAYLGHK
Text: For partial inhibitors, the percentage fluorescence polarisation inhibition for a given concentration of the test compound is indicated.

[2] = test system: RS4; 11 leukaemia cell line; assay: In vitro cytotoxicity, Microculture Tetrazolium Assay (MTT); format: cell-based; conditions: Homo sapiens, 11 cells exposed for 48 hours
Protocol: The cytotoxicity studies were carried out on the RS4; 11 leukaemia cell line and on H146 small Cell Lung Carcinoma cell line. The cells are distributed onto microplates and exposed to the test compounds for 48 hours. The cell viability is then quantified by a colorimetric assay, the Microculture Tetrazolium Assay (Cancer Res., 1987, 47, 939-942).

Compound: CN(C(=O)c1cc(-c2cc3c(cc2C(=O)N2Cc4ccccc4C[C@H]2CN2CCOCC2)CN(C(=O)COc2ccccc2)C3)n2c1CCCC2)c1ccc(O)cc1 [Example 156, N-(4-Hydroxyphenyl)-N-methyl-3-{6-[(3S)-3-(morpholin-4-ylmethyl)-1,2,3,4-tetrahydroisoquinoline-2-carbonyl]-2-(2-phenoxyacetyl)-2,3-dihydro-1H-isoindol-5-yl}-5,6,7,8-tetrahydroindolizine-1-carboxamide]
IC50 [1]: 6.8 nM
IC50 [2]: 121 nM

Compound: Cc1c(C(=O)N(C)c2ccc(O)cc2)cc(-c2cc3c(cc2C(=O)N2Cc4ccccc4C[C@H]2C)CN(C(=O)[C@H](N)c2ccccc2)C3)n1C [Example 174, 5-(2-[(2R)-2-Amino-2-phenylacetyl]-6-{[(3R)-3-methyl-3,4-dihydroisoquinolin-2(1H)-yl]carbonyl}-2,3-dihydro-1H-isoindol-5-yl)-N-(4-hydroxyphenyl)-N,1,2-trimethyl-1H-pyrrole-3-carboxamide]
IC50 [1]: 5.9 nM
IC50 [2]: 407 nM

Compound: CN(C(=O)c1cc(-c2cc3c(cc2C(=O)N2Cc4ccccc4C[C@H]2CN2CCOCC2)CN(S(=O)(=O)c2ccc4ccccc4c2)CC3)n2c1CCCC2)c1ccc(O)cc1 [Example 5, N-(4-Hydroxyphenyl)-N-methyl-3-{7-[(3S)-3-(morpholin-4-ylmethyl)-1,2,3,4-tetrahydroisoquinoline-2-carbonyl]-2-(naphthalene-2-sulfonyl)-1,2,3,4-tetrahydroisoquinolin-6-yl}-5,6,7,8-tetrahydroindolizine-1-carboxamide]
IC50 [1]: 43 nM
IC50 [2]: 70 nM

Compound: Cc1c(C(=O)N(C)c2ccc(O)cc2)cc(-c2cc3c(cc2C(=O)N2Cc4ccccc4C[C@H]2CN2CCOCC2)CN(C(=O)Oc2ccc(C#N)cc2)CC3)n1C [Example 146, 4-Cyanophenyl 6-{4-[(4-hydroxyphenyl)(methyl)carbamoyl]-1,5-dimethyl-1H-pyrrol-2-yl}-7-[(3S)-3-(morpholin-4-ylmethyl)-1,2,3,4-tetrahydroisoquinoline-2-carbonyl]-1,2,3,4-tetrahydroisoquinoline-2-carboxylate]
IC50 [1]: 2.8 nM
IC50 [2]: 6 nM

Compound: Cc1ccc(OC(=O)N2Cc3cc(C(=O)N4Cc5ccccc5C[C@H]4C)c(-c4cc(C(=O)N(C)c5ccc(O)cc5)c(C)n4C)cc3C2)cc1 [Example 107, 4-Methylphenyl 5-{4-[(4-hydroxyphenyl)(methyl)carbamoyl]-1,5-dimethyl-1H-pyrrol-2-yl}-6-[(3R)-3-methyl-1,2,3,4-tetrahydroisoquinoline-2-carbonyl]-2,3-dihydro-1H-isoindole-2-carboxylate]
IC50 [1]: 3.5 nM
IC50 [2]: 6.9 nM

Compound: CN(C(=O)c1cc(-c2cc3c(cc2C(=O)N2Cc4ccccc4C[C@H]2CN2CCOCC2)CN(C(=O)Oc2ccc(Cl)cc2)CC3)n2c1CCCC2)c1ccc(O)cc1 [Example 122, 4-Chlorophenyl 6-{1-[(4-hydroxyphenyl)(methyl)carbamoyl]-5,6,7,8-tetrahydroindolizin-3-yl}-7-[(3S)-3-(morpholin-4-ylmethyl)-1,2,3,4-tetrahydroisoquinoline-2-carbonyl]-1,2,3,4-tetrahydroisoquinoline-2-carboxylate]
IC50 [1]: 2.6 nM
IC50 [2]: 5.4 nM

Compound: Cc1c(C(=O)N(C)c2ccc(O)cc2)cc(-c2cc3c(cc2C(=O)N2Cc4ccccc4C[C@H]2C)CN(C(=O)Oc2ccccc2)C3)n1C [Example 63, Phenyl 5-{4-[(4-hydroxyphenyl)(methyl)carbamoyl]-1,5-dimethyl-1H-pyrrol-2-yl}-6-[(3R)-3-methyl-1,2,3,4-tetrahydroisoquinoline-2-carbonyl]-2,3-dihydro-1H-isoindole-2-carboxylate]
IC50 [1]: 4.4 nM
IC50 [2]: 12 nM

Compound: Cc1c(C(=O)N(C)c2ccccc2)cc(-c2cc3c(cc2C(=O)N2Cc4ccccc4C[C@H]2CN2CCOCC2)CN(C(=O)Cc2ccc(C#N)cc2)CC3)n1C [Example 151, 5-{2-[2-(4-Cyanophenyl)acetyl]-7-[(3S)-3-(morpholin-4-ylmethyl)-1,2,3,4-tetrahydroisoquinoline-2-carbonyl]-1,2,3,4-tetrahydroisoquinolin-6-yl}-N,1,2-trimethyl-N-phenyl-1H-pyrrole-3-carboxamide]
IC50 [1]: 5.3 nM
IC50 [2]: 19 nM

Compound: CNC(=O)N1Cc2cc(C(=O)N3Cc4ccccc4C[C@H]3C)c(-c3cc(C(=O)N(C)c4ccc(O)cc4)c(C)n3C)cc2C1 [Example 170, 5-{4-[(4-Hydroxyphenyl)(methyl)carbamoyl]-1,5-dimethyl-1H-pyrrol-2-yl}-N-methyl-6-[(3R)-3-methyl-1,2,3,4-tetrahydroisoquinoline-2-carbonyl]-2,3-dihydro-1H-isoindole-2-carboxamide]
IC50 [1]: 12 nM
IC50 [2]: 491 nM

Compound: C[C@@H]1Cc2ccccc2CN1C(=O)c1cc2c(cc1-c1cc(C(=O)N(C)c3ccc(O)cc3)c3n1CCCC3)CN(C(=O)Nc1ccc(N3CCN(C)CC3)cc1)C2 [Example 65, 5-{1-[(4-Hydroxyphenyl)(methyl)carbamoyl]-5,6,7,8-tetrahydroindolizin-3-yl}-6-[(3R)-3-methyl-1,2,3,4-tetrahydroisoquinoline-2-carbonyl]-N-[4-(4-methylpiperazin-1-yl)phenyl]-2,3-dihydro-1H-isoindole-2-carboxamide]
IC50 [1]: 6.5 nM
IC50 [2]: 51 nM

Compound: CN(C(=O)c1cc(-c2cc3c(cc2C(=O)N2Cc4ccccc4C[C@H]2CN2CCOCC2)CN(C(=O)NC(C)(C)C)C3)n2c1CCCC2)c1ccc(O)cc1 [Example 17, N-tert-Butyl-5-{1-[(4-hydroxyphenyl)(methyl)carbamoyl]-5,6,7,8-tetrahydroindolizin-3-yl}-6-[(3S)-3-(morpholin-4-ylmethyl)-1,2,3,4-tetrahydroisoquinoline-2-carbonyl]-2,3-dihydro-1H-isoindole-2-carboxamide hydrochloride]
IC50 [1]: 91 nM
IC50 [2]: 1760 nM

Compound: Cc1c(C(=O)N(C)c2ccc(O)cc2)cc(-c2cc3c(cc2C(=O)N2Cc4ccccc4C[C@H]2C)CN(C(=O)C(C)Oc2ccccc2)C3)n1C (stereo partly drawn) [Example 104, N-(4-hydroxyphenyl)-N,1,2-trimethyl-5-{6-[(3R)-3-methyl-1,2,3,4-tetrahydroisoquinoline-2-carbonyl]-2-(2-phenoxypropanoyl)-2,3-dihydro-1H-isoindol-5-yl}-1H-pyrrole-3-carboxamide]
IC50 [1]: 6.7 nM
IC50 [2]: 65 nM

Compound: Cc1ccc(OC(=O)N2CCc3cc(-c4cc(C(=O)N(C)c5ccccc5)c(C)n4C)c(C(=O)N4Cc5ccccc5C[C@H]4C)cc3C2)cc1 [Example 785, 4-Methylphenyl 6-{1,5-dimethyl-4-[methyl(phenyl)carbamoyl]-1H-pyrrol-2-yl}-7-[(3R)-3-methyl-1,2,3,4-tetrahydroisoquinoline-2-carbonyl]-1,2,3,4-tetrahydroisoquinoline-2-carboxylate]
IC50 [1]: 3.3 nM
IC50 [2]: 7.8 nM

Further lines, with some results ahead:

IC50 [1]: 15 nM
Compound: C[C@@H]1Cc2ccccc2CN1C(=O)c1cc2c(cc1-c1cc(C(=O)N(C)c3ccc(O)cc3)c3n1CCCC3)CN(C(=O)Oc1ccccc1)C2 [Example 45, Phenyl 5-{1-[(4-hydroxyphenyl)(methyl)carbamoyl]-5,6,7,8-tetrahydroindolizin-3-yl}-6-[(3R)-3-methyl-1,2,3,4-tetrahydroisoquinoline-2-carbonyl]-2,3-dihydro-1H-isoindole-2-carboxylate]
IC50 [2]: 20 nM

IC50 [1]: 23 nM
Compound: C[C@@H]1Cc2ccccc2CN1C(=O)c1cc2c(cc1-c1cc(C(=O)N(C)c3ccc(O)cc3)c3n1CCCC3)CN(Cc1ccccn1)C2 [Example 28, N-(4-Hydroxyphenyl)-N-methyl-3-{6-[(3R)-3-methyl-1,2,3,4-tetrahydroisoquinoline-2-carbonyl]-2-(pyridin-2-ylmethyl)-2,3-dihydro-1H-isoindol-5-yl}-5,6,7,8-tetrahydroindolizine-1-carboxamide]
IC50 [2]: > 150 nM

IC50 [1]: 21 nM
Compound: C[C@@H]1Cc2ccccc2CN1C(=O)c1cc2c(cc1-c1cc(C(=O)N(C)c3ccc(O)cc3)c3n1CCCC3)CN(CCc1ccccc1)C2 [Example 72, N-(4-Hydroxyphenyl)-N-methyl-3-{6-[(3R)-3-methyl-1,2,3,4-tetrahydroisoquinoline-2-carbonyl]-2-(2-phenylethyl)-2,3-dihydro-1H-isoindol-5-yl}-5,6,7,8-tetrahydroindolizine-1-carboxamide]
IC50 [2]: 229 nM

IC50 [1]: 23 nM
Compound: C[C@@H]1Cc2ccccc2CN1C(=O)c1cc2c(cc1-c1cc(C(=O)N(C)c3ccc(O)cc3)c3n1CCCC3)CN(C(=O)COc1ccc(Cl)cc1)C2 [Example 49, 3-{2-[2-(4-Chlorophenoxy)acetyl]-6-[(3R)-3-methyl-1,2,3,4-tetrahydroisoquinoline-2-carbonyl]-2,3-dihydro-1H-isoindol-5-yl}-N-(4-hydroxyphenyl)-N-methyl-5,6,7,8-tetrahydroindolizine-1-carboxamide]
IC50 [2]: 58 nM

IC50 [1]: 5.1 nM
Compound: C[C@@H]1Cc2ccccc2CN1C(=O)c1cc2c(cc1-c1cc(C(=O)N(C)c3ccc(O)cc3)c3n1CCCC3)CN(C(=O)CNc1ccccc1)C2 [Example 87, N-(4-Hydroxyphenyl)-N-methyl-3-{6-[(3R)-3-methyl-1,2,3,4-tetrahydroisoquinoline-2-carbonyl]-2-[2-(phenylamino)acetyl]-2,3-dihydro-1H-isoindol-5-yl}-5,6,7,8-tetrahydroindolizine-1-carboxamide]
IC50 [2]: 43 nM

IC50 [1]: 6.1 nM
Compound: C[C@@H]1Cc2ccccc2CN1C(=O)c1cc2c(cc1-c1cc(C(=O)N(C)c3ccc(O)cc3)c3n1CCCC3)CCN(C(=O)N(C)c1ccccc1)C2 [Example 74, 6-{1-[(4-Hydroxyphenyl)(methyl)carbamoyl]-5,6,7,8-tetrahydroindolizin-3-yl}-N-methyl-7-[(3R)-3-methyl-1,2,3,4-tetrahydroisoquinoline-2-carbonyl]-N-phenyl-1,2,3,4-tetrahydroisoquinoline-2-carboxamide]
IC50 [2]: 94 nM
